In patent US12448388B2, “PRMT5 inhibitors and uses thereof” (Gilead Sciences, Inc., priority 2023, dated 2025):

System: HCT116 MTAP-deleted cell lines
Experiment: Cell viability assay (CellTiter-Glo, 7 days), HCT116 MTAP-deleted
Type: cell-based
Conditions: Homo sapiens, HCT-116; cell viability assay, HCT116 MTAP-deleted; class symbols; read-out: CC50
How it was run: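 CC50 values come from 7-day CellTiter-Glo viability measurements on cells exposed to a dose range of PRMT5 inhibitors dispensed from DMSO stocks.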

| Structure (SMILES) | CC50 [nM] |
| --- | --- |
| COc1cc(-c2cnn(C(F)(F)F)c2)ccc1CN(C)C(=O)c1cc2c(cc1F)nc(N)c1cncn12 [Ff-554, 4-amino-N-(4-(1-(trifluoromethyl)-1H-pyrazol-4-yl)-2-methoxybenzyl)-7-fluoro-N-methylimidazo[1,5-a]quinoxaline-8-carboxamide] | 100 to 1000 |
| CN(C(=O)c1cc2c(cc1F)nc(N)c1cncn12)C1COc2cc(Br)c(F)cc21 (stereo not shown) [Ff-560, 4-amino-N-(6-bromo-5-fluoro-2,3-dihydrobenzofuran-3-yl)-7-fluoro-N-methylimidazo[1,5-a]quinoxaline-8-carboxamide] | < 100 |
| CN(C(=O)c1cc2c(cc1C#N)nc(N)c1cncn12)[C@@H]1COc2cc(OC(F)(F)F)ccc21 [Ff-561, (S)-4-amino-7-cyano-N-methyl-N-(6-(trifluoromethoxy)-2,3-dihydrobenzofuran-3-yl)imidazo[1,5-a]quinoxaline-8-carboxamide] | < 100 |
| CN(C(=O)c1cc2c(cc1Cl)nc(N)c1cncn12)[C@@H]1COc2cc(OC(F)(F)F)ccc21 [Ff-562, (S)-4-amino-7-chloro-N-methyl-N-(6-(trifluoromethoxy)-2,3-dihydrobenzofuran-3-yl)imidazo[1,5-a]quinoxaline-8-carboxamide] | < 100 |
| CN(C(=O)c1ccc2nc(N)c3cncn3c2c1)[C@@H]1COc2cc(OC(F)(F)F)ccc21 [Ff-563, (S)-4-amino-N-methyl-N-(6-(trifluoromethoxy)-2,3-dihydrobenzofuran-3-yl)imidazo[1,5-a]quinoxaline-8-carboxamide] | < 100 |
| Cc1ncc2c(N)nc3cc(F)c(C(=O)N(C)[C@@H]4COc5cc(OC(F)(F)F)ccc54)cc3n12 [Ff-564, (S)-4-amino-7-fluoro-N,1-dimethyl-N-(6-(trifluoromethoxy)-2,3-dihydrobenzofuran-3-yl)imidazo[1,5-a]quinoxaline-8-carboxamide] | < 100 |
| CN(C(=O)c1cc2c(cn1)nc(N)c1cncn12)[C@@H]1COc2cc(OC(F)(F)F)ccc21 [Ff-565, (S)-4-amino-N-methyl-N-(6-(trifluoromethoxy)-2,3-dihydrobenzofuran-3-yl)imidazo[1,5-a]pyrido[3,4-e]pyrazine-8-carboxamide] | 100 to 1000 |
| CN(C(=O)c1ccc2nc(N)c3cncn3c2c1)[C@@H]1COc2cc(F)ccc21 [Ff-569, (S)-4-amino-N-(6-fluoro-2,3-dihydrobenzofuran-3-yl)-N-methylimidazo[1,5-a]quinoxaline-8-carboxamide] | 100 to 1000 |
| CN(C(=O)c1ccc2nc(N)c3cncn3c2c1)[C@@H](c1ccc(C(F)(F)F)cc1Cl)C(F)F [Ff-570, (S)-4-amino-N-(1-(2-chloro-4-(trifluoromethyl)phenyl)-2,2-difluoroethyl)-N-methylimidazo[1,5-a]quinoxaline-8-carboxamide] | 100 to 1000 |
| CN(C(=O)c1cc2c(cn1)nc(N)c1cncn12)[C@@H](c1ccc(C(F)(F)F)cc1Cl)C(F)F [Ff-571, (S)-4-amino-N-(1-(2-chloro-4-(trifluoromethyl)phenyl)-2,2-difluoroethyl)-N-methylimidazo[1,5-a]pyrido[3,4-e]pyrazine-8-carboxamide] | 100 to 1000 |
| CN(C(=O)c1cc2c(cc1F)nc(N)c1cncn12)[C@@H]1COc2cc(C3CC(F)(F)C3)ccc21 [Ff-572, (S)-4-amino-N-(6-(3,3-difluorocyclobutyl)-2,3-dihydrobenzofuran-3-yl)-7-fluoro-N-methylimidazo[1,5-a]quinoxaline-8-carboxamide] | < 100 |
| CN(C(=O)c1cc2c(cc1F)nc(N)c1cncn12)[C@@H]1COc2cc(C3COC3)ccc21 [Ff-573, (S)-4-amino-7-fluoro-N-methyl-N-(6-(oxetan-3-yl)-2,3-dihydrobenzofuran-3-yl)imidazo[1,5-a]quinoxaline-8-carboxamide] | 100 to 1000 |
| CN(C(=O)c1cc2c(cc1F)nc(N)c1cncn12)[C@@H]1COc2cc(C3CC3(F)F)ccc21 (stereo partly drawn) [Ff-574, 4-amino-N-((3S)-6-(2,2-difluorocyclopropyl)-2,3-dihydrobenzofuran-3-yl)-7-fluoro-N-methylimidazo[1,5-a]quinoxaline-8-carboxamide] | < 100 |
| CN(C(=O)c1cc2c(cc1F)nc(N)c1cncn12)[C@@H]1COc2cc(C3(C)CC3(F)F)ccc21 (stereo partly drawn) [Ff-575, 4-amino-N-((3S)-6-(2,2-difluoro-1-methylcyclopropyl)-2,3-dihydrobenzofuran-3-yl)-7-fluoro-N-methylimidazo[1,5-a]quinoxaline-8-carboxamide] | < 100 |
| CN(C(=O)c1cc2c(cc1F)nc(N)c1cncn12)[C@@H]1COc2cc(C(F)F)ccc21 [Ff-576, (S)-4-amino-N-(6-(difluoromethyl)-2,3-dihydrobenzofuran-3-yl)-7-fluoro-N-methylimidazo[1,5-a]quinoxaline-8-carboxamide] | 100 to 1000 |
| CN(C(=O)c1cc2c(cc1F)nc(N)c1cncn12)C(c1ccc(C(F)(F)F)cn1)C(F)F (stereo not shown) [Ff-577, 4-amino-N-(2,2-difluoro-1-(5-(trifluoromethyl)pyridin-2-yl)ethyl)-7-fluoro-N-methylimidazo[1,5-a]quinoxaline-8-carboxamide] | 100 to 1000 |

| Structure (SMILES) | CC50 [nM] |
| --- | --- |
| C[C@H]1CN(C(=O)c2cc3c(cc2F)nc(N)c2cncn23)[C@H]2c3ccc(C#N)cc3C[C@H]2O1 [Ff-578, (2S,4aS,9aR)-4-(4-amino-7-fluoroimidazo[1,5-a]quinoxaline-8-carbonyl)-2-methyl-2,3,4,4a,9,9a-hexahydroindeno[2,1-b][1,4]oxazine-7-carbonitrile] | < 100 |
| CO[C@@H]1Cc2cc(Br)ccc2[C@@H]1N(C)C(=O)c1cc2c(cc1F)nc(N)c1cncn12 [Ff-579, 4-amino-N-((1S,2R)-5-bromo-2-methoxy-2,3-dihydro-1H-inden-1-yl)-7-fluoro-N-methylimidazo[1,5-a]quinoxaline-8-carboxamide] | < 100 |
| CO[C@@H]1Cc2cc(-c3cnn(C(F)F)c3)ccc2[C@@H]1N(C)C(=O)c1cc2c(cc1F)nc(N)c1cncn12 [Ff-580, 4-amino-N-((1S,2R)-5-(1-(difluoromethyl)-1H-pyrazol-4-yl)-2-methoxy-2,3-dihydro-1H-inden-1-yl)-7-fluoro-N-methylimidazo[1,5-a]quinoxaline-8-carboxamide] | 100 to 1000 |
| CO[C@@H]1Cc2cc(C(F)(F)F)ccc2[C@@H]1N(C)C(=O)c1cc2c(cc1F)nc(N)c1cncn12 [Ff-581, 4-amino-7-fluoro-N-((1S,2R)-2-methoxy-5-(trifluoromethyl)-2,3-dihydro-1H-inden-1-yl)-N-methylimidazo[1,5-a]quinoxaline-8-carboxamide] | 100 to 1000 |
| CN(C(=O)c1cc2c(cc1F)nc(N)c1cncn12)[C@H]1c2ccc(Br)cc2C[C@H]1OC(F)F [Ff-582, 4-amino-N-((1S,2R)-5-bromo-2-(difluoromethoxy)-2,3-dihydro-1H-inden-1-yl)-7-fluoro-N-methylimidazo[1,5-a]quinoxaline-8-carboxamide] | 100 to 1000 |
| CN(C(=O)c1cc2c(cc1F)nc(N)c1cncn12)[C@H]1c2ccc(-c3cnn(C(F)F)c3)cc2C[C@H]1OC(F)F [Ff-583, 4-amino-N-((1S,2R)-2-(difluoromethoxy)-5-(1-(difluoromethyl)-1H-pyrazol-4-yl)-2,3-dihydro-1H-inden-1-yl)-7-fluoro-N-methylimidazo[1,5-a]quinoxaline-8-carboxamide] | 100 to 1000 |
| CN(C(=O)c1cc2c(cc1F)nc(N)c1cncn12)[C@@H]1COc2cc(OC(F)F)c(F)cc21 [Ff-584] | < 100 |
| CN(C(=O)c1cc2c(cc1F)nc(N)c1cncn12)[C@@H]1COc2cc(OC(F)F)cc(F)c21 [Ff-585] | < 100 |
| Nc1nc2ccc(C(=O)N3CCC[C@@H]4Oc5cc(C(F)(F)F)ccc5[C@@H]43)cc2n2cnc(F)c12 [Ff-588, (4-amino-3-fluoroimidazo[1,5-a]quinoxalin-8-yl)((4aS,9bS)-7-(trifluoromethyl)-3,4,4a,9b-tetrahydrobenzofuro[3,2-b]pyridin-1(2H)-yl)methanone] | < 100 |
| Cc1ncc2c(N)nc3cc(F)c(C(=O)N(Cc4ccc(C(F)(F)F)cn4)C4(C)CC4)cc3n12 [Ff-589, 4-amino-7-fluoro-1-methyl-N-(1-methylcyclopropyl)-N-((5-(trifluoromethyl)pyridin-2-yl)methyl)imidazo[1,5-a]quinoxaline-8-carboxamide] | < 100 |
| Cc1ncn2c1c(N)nc1cc(F)c(C(=O)N(Cc3ccc(C(F)(F)F)cn3)C3(C)CC3)cc12 [Ff-590, 4-amino-7-fluoro-3-methyl-N-(1-methylcyclopropyl)-N-((5-(trifluoromethyl)pyridin-2-yl)methyl)imidazo[1,5-a]quinoxaline-8-carboxamide] | < 100 |
| CC(C)N(Cc1ccc(-c2ccc(OC(F)F)cc2)cc1F)C(=O)c1cc2c(cc1F)nc(N)c1cncn12 [Ff-591, 4-amino-N-((4′-(difluoromethoxy)-3-fluoro-[1,1′-biphenyl]-4-yl)methyl)-7-fluoro-N-isopropylimidazo[1,5-a]quinoxaline-8-carboxamide] | < 100 |
| CC(C)N(Cc1ccc(-c2cccc(OC(F)F)c2)cc1F)C(=O)c1cc2c(cc1F)nc(N)c1cncn12 [Ff-592, 4-amino-N-((3′-(difluoromethoxy)-3-fluoro-[1,1′-biphenyl]-4-yl)methyl)-7-fluoro-N-isopropylimidazo[1,5-a]quinoxaline-8-carboxamide] | < 100 |
| CC(C)N(Cc1ccc(-c2cnn(-c3ccccc3)c2)cc1F)C(=O)c1cc2c(cc1F)nc(N)c1cncn12 [Ff-593, 4-amino-7-fluoro-N-(2-fluoro-4-(1-phenyl-1H-pyrazol-4-yl)benzyl)-N-isopropylimidazo[1,5-a]quinoxaline-8-carboxamide] | < 100 |
| CC(C)N(Cc1ccc(-c2ccc[nH]c2=O)cc1F)C(=O)c1cc2c(cc1F)nc(N)c1cncn12 [Ff-594, 4-amino-7-fluoro-N-(2-fluoro-4-(2-oxo-1,2-dihydropyridin-3-yl)benzyl)-N-isopropylimidazo[1,5-a]quinoxaline-8-carboxamide] | 100 to 1000 |
